According to publication PMC7617869, “Molecular glues that inhibit deubiquitylase activity and inflammatory signaling” (Nature Structural & Molecular Biology, 2025):
Several values for one entry are separate records, joined by “and”; a condition that tells them apart may be missing. Equal entries are not always repeated.

Columns and labels:
Test in all cases: DUB selectivity profiling (DUBprofiler, ubiquitin–rhodamine(110)–glycine)
Format in all cases: biochemical
[1] = target: T1, panel of 48 purified DUBs (Homo sapiens, UniProt Q13107); conditions: DUB USP4; screening concentration 5 μM
T1 construct: purchased Ubiquigent (DUBprofiler service)
Description: (§1) Biochemical selectivity profiling (DUBprofiler) was performed by Ubiquigent with a panel of 48 purified DUBs and ubiquitin–rhodamine(110)–glycine as a fluorescent substrate.

[2] = target: T2, panel of 48 purified DUBs (Homo sapiens, UniProt O75317); conditions: DUB USP12/UAF1/WDR20; screening concentration 5 μM
T2 construct: purchased Ubiquigent (DUBprofiler service)
Description: as §1

[3] = target: T3, panel of 48 purified DUBs (Homo sapiens, UniProt O75604); conditions: DUB USP2; screening concentration 5 μM; 5 µM
T3 construct: purchased Ubiquigent (DUBprofiler service)
Description: as §1

[4] = target: T4, panel of 48 purified DUBs (Homo sapiens, UniProt Q70EL2); conditions: DUB USP45; screening concentration 5 μM; 5 µM
T4 construct: purchased Ubiquigent (DUBprofiler service)
Description: as §1

[5] = target: T5, panel of 48 purified DUBs (Homo sapiens, UniProt P09936); conditions: DUB UCHL1; screening concentration 5 μM; 5 µM
T5 construct: purchased Ubiquigent (DUBprofiler service)
Description: as §1

[6] = target: T6, panel of 48 purified DUBs (Homo sapiens, UniProt Q96FJ0); conditions: screening concentration 5 μM, 5 µM
T6 construct: purchased Ubiquigent (DUBprofiler service)
Description: as §1

[7] = target: T7, panel of 48 purified DUBs (Homo sapiens, UniProt Q6R6M4); conditions: DUB USP17; screening concentration 5 μM; 5 µM
T7 construct: purchased Ubiquigent (DUBprofiler service)
Description: as §1

[8] = target: T8, panel of 48 purified DUBs (Homo sapiens, UniProt Q7L8S5); conditions: DUB OTUD6A; screening concentration 5 μM; 5 µM
T8 construct: purchased Ubiquigent (DUBprofiler service)
Description: as §1

[9] = target: T9, panel of 48 purified DUBs (Homo sapiens, UniProt P35125); conditions: DUB USP6; screening concentration 5 μM; 5 µM
T9 construct: purchased Ubiquigent (DUBprofiler service)
Description: as §1

[10] = target: T10, panel of 48 purified DUBs (Homo sapiens, UniProt Q9Y2K6); conditions: DUB USP20; screening concentration 5 μM; 5 µM
T10 construct: purchased Ubiquigent (DUBprofiler service)
Description: as §1

[11] = target: T11, panel of 48 purified DUBs (Homo sapiens, UniProt Q9H3M9); conditions: DUB Ataxin3L; screening concentration 5 μM; 5 µM
T11 construct: purchased Ubiquigent (DUBprofiler service)
Description: as §1

[12] = target: T12, panel of 48 purified DUBs (Homo sapiens, UniProt P51784); conditions: DUB USP11; screening concentration 5 μM; 5 µM
T12 construct: purchased Ubiquigent (DUBprofiler service)
Description: as §1

[13] = target: T13, panel of 48 purified DUBs (Homo sapiens, UniProt Q9NQC7); conditions: DUB CYLD; screening concentration 5 μM; 5 µM
T13 construct: purchased Ubiquigent (DUBprofiler service)
Description: as §1

[14] = system: panel of 48 purified DUBs; conditions: single dose 5 μM, including AMSH-LP
Description: as §1

[15] = target: T14, panel of 48 purified DUBs (Homo sapiens, UniProt Q9Y5T5); conditions: DUB USP16; screening concentration 5 μM; 5 µM
T14 construct: purchased Ubiquigent (DUBprofiler service)
Description: as §1

[16] = target: T15, panel of 48 purified DUBs (Homo sapiens, UniProt Q8N6M0); conditions: DUB OTUD6B; screening concentration 5 μM; 5 µM
T15 construct: purchased Ubiquigent (DUBprofiler service)
Description: as §1

[17] = target: T16, panel of 48 purified DUBs (Homo sapiens, UniProt Q8NB14); conditions: DUB USP38; screening concentration 5 μM; 5 µM
T16 construct: purchased Ubiquigent (DUBprofiler service)
Description: as §1

[18] = target: T17, panel of 48 purified DUBs (Homo sapiens, UniProt Q96DC9); conditions: DUB OTUB2; screening concentration 5 μM; 5 µM
T17 construct: purchased Ubiquigent (DUBprofiler service)
Description: as §1

[19] = target: T18, panel of 48 purified DUBs (Homo sapiens, UniProt Q92560); conditions: DUB BAP1; screening concentration 5 μM; 5 µM
T18 construct: purchased Ubiquigent (DUBprofiler service)
Description: as §1

[20] = target: T19, panel of 48 purified DUBs (Homo sapiens, UniProt Q9UHP3); conditions: DUB USP25; screening concentration 5 μM; 5 µM
T19 construct: purchased Ubiquigent (DUBprofiler service)
Description: as §1

[21] = target: T20, panel of 48 purified DUBs (Homo sapiens, UniProt Q9Y4E8); conditions: DUB USP15; screening concentration 5 μM; 5 µM
T20 construct: purchased Ubiquigent (DUBprofiler service)
Description: as §1

[22] = target: T21, panel of 48 purified DUBs (Homo sapiens, UniProt Q9Y5K5); conditions: DUB UCHL5; screening concentration 5 μM; 5 µM
T21 construct: purchased Ubiquigent (DUBprofiler service)
Description: as §1

[23] = target: T22, panel of 48 purified DUBs (Homo sapiens, UniProt Q9UK80); conditions: DUB USP21; screening concentration 5 μM
T22 construct: purchased Ubiquigent (DUBprofiler service)
Description: as §1

[24] = target: T23, panel of 48 purified DUBs (Homo sapiens, UniProt O94966); conditions: DUB USP19; screening concentration 5 μM; 5 µM
T23 construct: purchased Ubiquigent (DUBprofiler service)
Description: as §1

[25] = target: T24, panel of 48 purified DUBs (Homo sapiens, UniProt Q5VVQ6); conditions: DUB OTU1; screening concentration 5 μM
T24 construct: purchased Ubiquigent (DUBprofiler service)
Description: as §1

[26] = target: T25, panel of 48 purified DUBs (Homo sapiens, UniProt P45974); conditions: DUB USP5; screening concentration 5 μM; 5 µM
T25 construct: purchased Ubiquigent (DUBprofiler service)
Description: as §1

[27] = target: T26, panel of 48 purified DUBs (Homo sapiens, UniProt P54252); conditions: DUB Ataxin3; screening concentration 5 μM; 5 µM
T26 construct: purchased Ubiquigent (DUBprofiler service)
Description: as §1

[28] = target: T27, panel of 48 purified DUBs (Homo sapiens, UniProt Q86UV5); conditions: DUB USP48; screening concentration 5 μM; 5 µM
T27 construct: purchased Ubiquigent (DUBprofiler service)
Description: as §1

[29] = target: T28, panel of 48 purified DUBs (Homo sapiens, UniProt Q6GQQ9); conditions: DUB Cezanne; screening concentration 5 μM; 5 µM
T28 construct: purchased Ubiquigent (DUBprofiler service)
Description: as §1

[30] = target: T29, panel of 48 purified DUBs (Homo sapiens, UniProt Q96G74); conditions: DUB OTUD5(p177S); screening concentration 5 μM; 5 µM
T29 construct: purchased Ubiquigent (DUBprofiler service)
Description: as §1

T6 sequence (Q96FJ0 whole entry): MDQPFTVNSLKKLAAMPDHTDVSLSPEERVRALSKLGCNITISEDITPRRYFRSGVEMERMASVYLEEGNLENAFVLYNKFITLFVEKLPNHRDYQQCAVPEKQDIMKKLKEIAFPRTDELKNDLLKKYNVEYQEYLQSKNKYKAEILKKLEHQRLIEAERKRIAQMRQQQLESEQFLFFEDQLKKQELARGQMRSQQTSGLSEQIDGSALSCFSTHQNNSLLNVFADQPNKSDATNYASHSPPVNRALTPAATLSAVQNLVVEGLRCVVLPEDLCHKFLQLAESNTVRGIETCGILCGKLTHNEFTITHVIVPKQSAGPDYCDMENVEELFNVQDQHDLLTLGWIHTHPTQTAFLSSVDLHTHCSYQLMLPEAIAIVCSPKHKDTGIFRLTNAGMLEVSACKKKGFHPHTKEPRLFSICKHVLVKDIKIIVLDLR
T11 sequence (Q9H3M9 whole entry): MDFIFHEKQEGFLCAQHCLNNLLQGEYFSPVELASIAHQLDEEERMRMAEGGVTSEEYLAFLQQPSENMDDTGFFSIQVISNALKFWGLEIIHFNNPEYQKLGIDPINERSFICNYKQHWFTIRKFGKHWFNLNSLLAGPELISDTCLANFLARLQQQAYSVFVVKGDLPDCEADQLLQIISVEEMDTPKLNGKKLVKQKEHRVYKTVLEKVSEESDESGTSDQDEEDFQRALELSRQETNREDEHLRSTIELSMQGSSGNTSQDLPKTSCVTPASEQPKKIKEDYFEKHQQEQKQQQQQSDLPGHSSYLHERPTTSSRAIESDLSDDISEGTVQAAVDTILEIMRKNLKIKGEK
T10 sequence (Q9Y2K6 whole entry): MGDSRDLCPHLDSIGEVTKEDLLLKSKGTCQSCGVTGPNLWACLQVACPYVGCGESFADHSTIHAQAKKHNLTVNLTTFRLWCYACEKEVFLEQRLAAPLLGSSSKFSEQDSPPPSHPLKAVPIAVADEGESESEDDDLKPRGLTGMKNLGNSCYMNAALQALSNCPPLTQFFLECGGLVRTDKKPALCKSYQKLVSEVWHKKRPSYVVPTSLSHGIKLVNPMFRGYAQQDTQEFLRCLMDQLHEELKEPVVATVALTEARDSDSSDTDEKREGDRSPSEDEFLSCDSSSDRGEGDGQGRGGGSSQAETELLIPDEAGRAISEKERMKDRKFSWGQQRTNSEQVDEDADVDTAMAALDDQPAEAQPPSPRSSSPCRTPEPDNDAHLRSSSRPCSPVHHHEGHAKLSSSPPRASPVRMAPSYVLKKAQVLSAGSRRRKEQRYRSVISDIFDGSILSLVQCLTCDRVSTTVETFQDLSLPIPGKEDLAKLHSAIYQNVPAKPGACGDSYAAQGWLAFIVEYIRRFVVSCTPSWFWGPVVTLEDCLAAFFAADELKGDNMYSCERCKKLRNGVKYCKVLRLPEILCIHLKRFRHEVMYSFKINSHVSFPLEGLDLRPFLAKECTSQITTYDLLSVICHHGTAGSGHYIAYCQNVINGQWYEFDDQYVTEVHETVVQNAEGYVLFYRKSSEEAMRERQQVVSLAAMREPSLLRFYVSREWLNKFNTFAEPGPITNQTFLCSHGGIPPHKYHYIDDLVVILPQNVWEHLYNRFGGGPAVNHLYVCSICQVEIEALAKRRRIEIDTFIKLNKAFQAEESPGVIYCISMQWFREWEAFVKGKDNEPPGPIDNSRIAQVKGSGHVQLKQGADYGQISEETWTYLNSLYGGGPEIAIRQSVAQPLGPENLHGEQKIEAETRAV
T13 sequence (Q9NQC7 whole entry): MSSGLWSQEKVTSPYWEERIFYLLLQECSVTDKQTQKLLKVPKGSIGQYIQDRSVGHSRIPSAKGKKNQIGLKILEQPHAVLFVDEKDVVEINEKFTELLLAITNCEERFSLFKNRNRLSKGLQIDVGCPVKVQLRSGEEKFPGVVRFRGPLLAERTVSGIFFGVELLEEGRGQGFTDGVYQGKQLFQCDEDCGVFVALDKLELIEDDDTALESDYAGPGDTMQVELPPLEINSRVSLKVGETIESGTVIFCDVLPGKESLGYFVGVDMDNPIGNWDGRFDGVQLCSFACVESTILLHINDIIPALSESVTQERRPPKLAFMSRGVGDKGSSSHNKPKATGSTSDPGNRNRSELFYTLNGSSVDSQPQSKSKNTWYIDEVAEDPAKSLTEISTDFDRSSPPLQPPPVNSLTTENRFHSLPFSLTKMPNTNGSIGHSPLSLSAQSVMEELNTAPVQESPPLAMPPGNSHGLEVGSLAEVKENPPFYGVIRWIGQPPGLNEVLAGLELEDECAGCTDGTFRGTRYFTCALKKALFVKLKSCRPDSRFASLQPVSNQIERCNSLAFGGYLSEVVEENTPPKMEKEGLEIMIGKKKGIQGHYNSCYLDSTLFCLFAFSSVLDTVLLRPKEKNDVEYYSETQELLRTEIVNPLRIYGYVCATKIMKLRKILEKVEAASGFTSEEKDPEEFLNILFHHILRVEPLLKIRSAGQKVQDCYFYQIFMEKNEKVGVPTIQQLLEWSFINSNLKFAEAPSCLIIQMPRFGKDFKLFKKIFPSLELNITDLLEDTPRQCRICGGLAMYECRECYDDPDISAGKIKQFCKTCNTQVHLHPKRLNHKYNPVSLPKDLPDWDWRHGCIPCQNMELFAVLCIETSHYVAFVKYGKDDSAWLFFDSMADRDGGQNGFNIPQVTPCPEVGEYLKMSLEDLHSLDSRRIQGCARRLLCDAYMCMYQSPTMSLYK
T18 sequence (Q92560 whole entry): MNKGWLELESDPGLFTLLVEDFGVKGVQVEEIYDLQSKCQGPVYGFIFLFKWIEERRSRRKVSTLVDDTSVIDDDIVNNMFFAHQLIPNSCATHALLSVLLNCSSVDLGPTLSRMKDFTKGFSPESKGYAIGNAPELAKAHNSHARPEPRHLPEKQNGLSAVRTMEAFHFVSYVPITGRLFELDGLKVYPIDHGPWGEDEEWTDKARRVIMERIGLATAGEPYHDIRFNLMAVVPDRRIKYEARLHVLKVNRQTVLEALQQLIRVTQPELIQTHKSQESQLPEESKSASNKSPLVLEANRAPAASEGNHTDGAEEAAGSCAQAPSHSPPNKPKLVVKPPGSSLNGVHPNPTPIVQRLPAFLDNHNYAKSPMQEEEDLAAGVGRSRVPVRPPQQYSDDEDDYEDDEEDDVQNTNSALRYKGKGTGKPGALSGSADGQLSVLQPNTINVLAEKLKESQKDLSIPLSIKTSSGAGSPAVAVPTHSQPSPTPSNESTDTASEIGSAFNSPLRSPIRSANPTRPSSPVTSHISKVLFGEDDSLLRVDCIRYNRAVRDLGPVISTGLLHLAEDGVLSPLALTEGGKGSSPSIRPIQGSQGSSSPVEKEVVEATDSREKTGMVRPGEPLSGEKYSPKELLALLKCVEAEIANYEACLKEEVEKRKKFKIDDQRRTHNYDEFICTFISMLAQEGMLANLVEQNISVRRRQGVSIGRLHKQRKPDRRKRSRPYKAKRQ
T9 sequence (P35125 whole entry): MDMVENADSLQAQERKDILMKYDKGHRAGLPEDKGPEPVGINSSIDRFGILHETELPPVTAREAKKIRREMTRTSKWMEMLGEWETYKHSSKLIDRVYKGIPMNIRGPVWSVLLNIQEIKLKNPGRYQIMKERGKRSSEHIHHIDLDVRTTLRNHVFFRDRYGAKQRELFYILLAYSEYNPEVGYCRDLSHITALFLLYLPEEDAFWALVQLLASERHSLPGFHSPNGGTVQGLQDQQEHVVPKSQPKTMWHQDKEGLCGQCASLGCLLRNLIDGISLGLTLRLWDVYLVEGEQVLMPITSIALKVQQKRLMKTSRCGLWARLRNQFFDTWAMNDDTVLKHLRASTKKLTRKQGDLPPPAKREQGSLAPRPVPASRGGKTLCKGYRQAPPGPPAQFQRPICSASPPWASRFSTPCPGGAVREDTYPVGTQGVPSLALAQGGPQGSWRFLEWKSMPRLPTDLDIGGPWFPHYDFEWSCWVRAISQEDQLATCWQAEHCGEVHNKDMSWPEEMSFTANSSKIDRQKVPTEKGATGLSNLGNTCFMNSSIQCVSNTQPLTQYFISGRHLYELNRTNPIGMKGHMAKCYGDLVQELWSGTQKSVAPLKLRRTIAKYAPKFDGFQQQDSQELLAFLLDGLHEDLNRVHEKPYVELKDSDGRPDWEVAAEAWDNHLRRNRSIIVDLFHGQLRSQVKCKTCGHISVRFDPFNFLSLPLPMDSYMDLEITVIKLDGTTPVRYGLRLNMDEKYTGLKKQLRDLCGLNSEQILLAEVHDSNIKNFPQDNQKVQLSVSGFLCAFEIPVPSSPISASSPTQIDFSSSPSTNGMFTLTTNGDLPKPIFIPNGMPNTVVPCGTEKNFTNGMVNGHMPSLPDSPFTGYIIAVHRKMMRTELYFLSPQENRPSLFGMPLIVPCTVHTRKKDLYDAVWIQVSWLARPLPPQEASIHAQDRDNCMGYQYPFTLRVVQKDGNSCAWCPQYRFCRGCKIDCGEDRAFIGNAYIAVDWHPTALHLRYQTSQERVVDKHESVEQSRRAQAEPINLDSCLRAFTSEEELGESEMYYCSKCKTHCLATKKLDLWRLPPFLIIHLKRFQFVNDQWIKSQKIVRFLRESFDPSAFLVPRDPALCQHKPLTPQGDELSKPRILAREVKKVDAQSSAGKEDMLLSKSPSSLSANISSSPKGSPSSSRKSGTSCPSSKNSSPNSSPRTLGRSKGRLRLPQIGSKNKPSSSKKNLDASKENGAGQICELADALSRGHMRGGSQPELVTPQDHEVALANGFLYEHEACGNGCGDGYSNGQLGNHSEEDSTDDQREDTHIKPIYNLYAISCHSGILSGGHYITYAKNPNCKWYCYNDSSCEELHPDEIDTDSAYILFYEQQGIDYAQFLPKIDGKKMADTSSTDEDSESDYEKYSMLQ
T17 sequence (Q96DC9 whole entry): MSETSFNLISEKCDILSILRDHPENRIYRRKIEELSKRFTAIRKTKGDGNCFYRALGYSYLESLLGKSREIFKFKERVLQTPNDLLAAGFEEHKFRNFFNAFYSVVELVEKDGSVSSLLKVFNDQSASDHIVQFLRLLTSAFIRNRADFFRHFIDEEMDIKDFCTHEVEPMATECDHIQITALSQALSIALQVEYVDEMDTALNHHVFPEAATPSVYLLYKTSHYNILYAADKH

O=C(NC1CCNCC1)c1nn(C(=O)c2c(Cl)cccc2Cl)cc1NC(=O)c1c(Cl)cccc1Cl [JMS-175-2]
Activity (% control) [1]: 101 % control
Activity (% control) [2]: 96 % control
Activity (% control) [3]: 86 % control and 84 % control
Activity (% control) [4]: 112 % control and 107 % control
Activity (% control) [5]: 104 % control and 112 % control
Activity (% control) ([6]; DUB AMSH-LP(+Zn2+)): 100 % control and 99 % control
Activity (% control) ([6]; DUB AMSH-LP): 98 % control and 90 % control
Activity (% control) [7]: 89 % control and 83 % control
Activity (% control) [8]: 100 % control and 103 % control
Activity (% control) [9]: 92 % control and 95 % control
Activity (% control) [10]: 93 % control and 101 % control
Activity (% control) [11]: 98 % control and 95 % control
Activity (% control) [12]: 102 % control and 100 % control
Activity (% control) [13]: 104 % control and 112 % control
inhibition of a panel of 48 DUBs [14]: did not fully inhibit any of the DUBs
Activity (% control) [15]: 79 % control and 78 % control
Activity (% control) [16]: 102 % control and 101 % control
Activity (% control) [17]: 94 % control and 92 % control
Activity (% control) [18]: 97 % control and 96 % control
Activity (% control) [19]: 92 % control and 96 % control
Activity (% control) [20]: 93 % control and 94 % control
Activity (% control) [21]: 111 % control and 115 % control
Activity (% control) [22]: 90 % control and 98 % control
Activity (% control) [23]: 93 % control
Activity (% control) [24]: 100 % control and 99 % control
Activity (% control) [25]: 84 % control
Activity (% control) [26]: 103 % control and 105 % control
Activity (% control) [27]: 87 % control and 85 % control
Activity (% control) [28]: 99 % control and 103 % control
Activity (% control) [29]: 88 % control and 90 % control
Activity (% control) [30]: 96 % control and 99 % control
